Measured values from ChEMBL document CHEMBL1133556, “Carbonic anhydrase inhibitors: water-soluble 4-sulfamoylphenylthioureas as topical intraocular pressure-lowering agents with long-lasting effects” (J Med Chem, 2000).
pKi: −log10 of the molar value. In brackets after ≈: the same amount, converted by molar mass.

Tests used:
Oryctolagus cuniculus [1] = species on record: Oryctolagus cuniculus
Oryctolagus cuniculus [2] = species on record: Oryctolagus cuniculus; remark: listed apart in the source
Description: Tested in vivo for lowering IOP (Intraocular Pressure)in Normotensive Rabbits at pH 7.0 after treatment with 50 uL, activity at 90 minutes

[3] = octanol/water
Description: Partition coefficient (logD) (chloroform/buffer)

Oryctolagus cuniculus [4] = species on record: Oryctolagus cuniculus; assay: Tested ex vivo for ocular tissue concentration against cornea after 2 hour of treatment with 50 uL; format: functional, organism-based
Oryctolagus cuniculus [5] = species on record: Oryctolagus cuniculus; assay: Tested ex vivo for ocular tissue concentration against aqueous humor after 1 hour of treatment with 50 uL; format: functional, organism-based; conditions: Eye
Carbonic anhydrase 2 = Carbonic anhydrase 2 (Homo sapiens, UniProt P00918)
Description: Inhibitory activity against human recombinant carbonic anhydrase II

Oryctolagus cuniculus [6] = assay: Tested in vivo for lowering IOP (Intraocular Pressure)in Glaucomatous Rabbits at pH 7.0 after treatment with 50 uL, activity at 60 minutes; format: functional
Oryctolagus cuniculus [7] = species on record: Oryctolagus cuniculus; assay: Tested ex vivo for ocular tissue concentration against cornea after 1 hour of treatment with 50 uL; format: functional, organism-based
Carbonic anhydrase 4 = molecular target: T1, Carbonic anhydrase 4 (Bos taurus, UniProt Q95323)
T1 sequence (Q95323 whole entry): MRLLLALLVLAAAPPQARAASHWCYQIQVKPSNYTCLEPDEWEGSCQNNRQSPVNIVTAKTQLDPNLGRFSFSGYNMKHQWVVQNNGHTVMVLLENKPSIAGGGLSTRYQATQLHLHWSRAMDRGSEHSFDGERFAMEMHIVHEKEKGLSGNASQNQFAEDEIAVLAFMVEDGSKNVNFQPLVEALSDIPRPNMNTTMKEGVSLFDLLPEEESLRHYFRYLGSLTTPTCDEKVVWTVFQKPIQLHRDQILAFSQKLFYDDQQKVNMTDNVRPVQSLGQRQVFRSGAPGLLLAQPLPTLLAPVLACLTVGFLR
Description: Inhibitory activity against bovine carbonic anhydrase IV from lung microsomes

Oryctolagus cuniculus [8] = assay: Tested in vivo for lowering IOP (Intraocular Pressure)in Glaucomatous Rabbits at pH 7.0 after treatment with 50 uL, activity at 90 minutes; format: functional
physchem = conditions: buffer, pH 7.4
Description: Solubility (in uM) in pH 7.40 at 25 degree C

Oryctolagus cuniculus [9] = species on record: Oryctolagus cuniculus; remark: listed apart in the source
Description: Tested in vitro for transcorneal accession rates (corneal permeability) against intact cornea

Oryctolagus cuniculus [10] = species on record: Oryctolagus cuniculus; assay: Tested ex vivo for ocular tissue concentration against ciliary process after 2 hour of treatment with 50 uL; format: functional, organism-based; conditions: Eye
Oryctolagus cuniculus [11] = species on record: Oryctolagus cuniculus; remark: listed apart in the source
Oryctolagus cuniculus [12] = assay: Tested in vivo for lowering IOP (Intraocular Pressure)in Glaucomatous Rabbits at pH 7.0 after treatment with 50 uL, activity at 30 minutes; format: functional
Carbonic anhydrase 1 = Carbonic anhydrase 1 (Homo sapiens, UniProt P00915)
Chain of Carbonic anhydrase 1 (P00915 whole entry): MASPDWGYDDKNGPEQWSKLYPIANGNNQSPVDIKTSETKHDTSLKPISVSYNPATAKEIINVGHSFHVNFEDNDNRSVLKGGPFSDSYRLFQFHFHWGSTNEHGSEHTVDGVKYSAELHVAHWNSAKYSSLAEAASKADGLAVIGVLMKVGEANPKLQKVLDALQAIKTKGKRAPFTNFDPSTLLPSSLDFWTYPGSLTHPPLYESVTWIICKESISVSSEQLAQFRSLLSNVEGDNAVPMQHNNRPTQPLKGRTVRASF
Description: Inhibitory activity against human recombinant carbonic anhydrase I

Oryctolagus cuniculus [13] = species on record: Oryctolagus cuniculus; assay: Tested ex vivo for ocular tissue concentration against ciliary process after 1 hour of treatment with 50 uL; format: functional, organism-based; conditions: Eye
Oryctolagus cuniculus [14] = species on record: Oryctolagus cuniculus; assay: Tested ex vivo for ocular tissue concentration against aqueous humor after 2 hour of treatment with 50 uL; format: functional, organism-based; conditions: Eye
Oryctolagus cuniculus [15] = species on record: Oryctolagus cuniculus; remark: listed apart in the source
Description: Tested in vitro for transcorneal accession rates (corneal permeability) against cornea with no epithelium

Oryctolagus cuniculus [16] = assay: Tested in vivo for lowering IOP (Intraocular Pressure)in Normotensive Rabbits at pH 7.0 after treatment with 50 uL, activity at 60 minutes; format: functional
Oryctolagus cuniculus [17] = assay: Tested in vivo for lowering IOP (Intraocular Pressure)in Glaucomatous Rabbits at pH 7.5 after treatment with 50 uL, activity at 60 minutes; format: functional
Oryctolagus cuniculus [18] = assay: Tested in vivo for lowering IOP (Intraocular Pressure)in Glaucomatous Rabbits at pH 7.5 after treatment with 50 uL, activity at 30 minutes; format: functional
Oryctolagus cuniculus [19] = assay: Tested in vivo for lowering IOP (Intraocular Pressure)in Glaucomatous Rabbits at pH 7.5 after treatment with 50 uL, activity at 90 minutes; format: functional
Oryctolagus cuniculus [20] = assay: Tested in vivo for lowering IOP (Intraocular Pressure)in Normotensive Rabbits at pH 7.0. after treatment with 50 uL, activity at 90 minutes; format: functional
Oryctolagus cuniculus [21] = assay: Tested in vivo for lowering IOP (Intraocular Pressure)in Normotensive Rabbits at pH 7.0 after treatment with 50 uL, activity at 30 minutes; format: functional

logD [3] | pKi (Carbonic anhydrase 2) | pKi (Carbonic anhydrase 4) | solubility (physchem) | pKi (Carbonic anhydrase 1) | Structure (SMILES) | Delta IOP (Oryctolagus cuniculus [1]) | Delta IOP (Oryctolagus cuniculus [2]) | kin (Oryctolagus cuniculus [9]) | Delta IOP (Oryctolagus cuniculus [11]) | kin (Oryctolagus cuniculus [15]) | Delta IOP (Oryctolagus cuniculus [16]) | other results
1.759 | 8.22 | 7.96 | 51 mM (≈ 17.7 mg/mL) | 7.57 | NC(=O)CC(/N=C(\S)Nc1ccc(S(N)(=O)=O)cc1)C(=O)O (centres undefined) | 7 mmHg | 6 mmHg | 3100 h⁻¹ | 10.1 mmHg | 7800 h⁻¹ |  | Concentration (Oryctolagus cuniculus [4]): 54 µM; Concentration (Oryctolagus cuniculus [5]): 285 µM; Delta IOP (Oryctolagus cuniculus [6]): 13 mmHg; Concentration (Oryctolagus cuniculus [7]): 141 µM; Delta IOP (Oryctolagus cuniculus [8]): 15.5 mmHg; Concentration (Oryctolagus cuniculus [10]): 12 µM; Delta IOP (Oryctolagus cuniculus [12]): 10 mmHg; Concentration (Oryctolagus cuniculus [13]): 47 µM; Concentration (Oryctolagus cuniculus [14]): 43 µM
1.459 | 8.52 | 7.82 | 73 mM (≈ 23.3 mg/mL) | 7.55 | NS(=O)(=O)c1ccc(N/C(S)=N/C(CO)C(=O)O)cc1 (centres undefined) | 8 mmHg | 9.1 mmHg | 3400 h⁻¹ |  | 8000 h⁻¹ | 9.5 mmHg | Delta IOP (Oryctolagus cuniculus [17]): 15 mmHg; Delta IOP (Oryctolagus cuniculus [18]): 10.4 mmHg; Delta IOP (Oryctolagus cuniculus [19]): 17.5 mmHg
 | 7.92 | 7.26 |  | 7.01 | NCCCCC(/N=C(\S)Nc1ccc(S(N)(=O)=O)cc1)C(=O)O (centres undefined) | 0 mmHg |  |  |  |  | 0 mmHg | Delta IOP (Oryctolagus cuniculus [20]): 0 mmHg
 | 7.96 | 7.48 |  | 7.35 | NS(=O)(=O)c1ccc(N/C(S)=N\CCCC(=O)O)cc1 |  | 2.9 mmHg |  | 3.1 mmHg |  |  | Delta IOP (Oryctolagus cuniculus [21]): 5 mmHg
